Source: patent EP3653636A1, “COMPOSITIONS AND METHODS FOR IMPROVING REBAUDIOSIDE X SOLUBILITY” (The Coca-Cola Company, priority 2012, dated 2014)
Values after ≈ are worked out from the molar mass of the structure shown. Blank lines part the entries; values can stand above or below the compound they belong to.

Columns and labels:
[1] = Water solubility of starting sample and spray-dried product (Example 4); type: physicochemical
[2] = Approximate water solubility by solvent addition method (visual inspection of complete dissolution)
Procedure: The approximate water solubility of Form A and amorphous Rebaudioside X were determined by a solvent addition method in which a weighed sample was treated with aliquots of water. The mixture was generally vortexed and/or sonicated between additions to facilitate dissolution. Complete dissolution of the test material was determined by visual inspection. Solubility was estimated based on the total solvent used to provide complete dissolution. The actual solubility may be greater than the value calculated because of the use of solvent aliquots that were too large or due to a slow rate of dissolution.

[3] = Duration of clarity of aqueous solutions at various test material/water ratios, with or without filtration (Example 9); type: physicochemical
Excerpt: The water solubility of amorphous Rebaudioside X prepared according to Example 4 was compared in various test material/water ratios with or without filtration prior to solubility determination. Generally, filtration performed after dissolution of sample assist the duration of clarity of the sample (or delays the precipitation/recrystallization of sample). […]

[4] = Equilibrium solubility in water by UV absorbance at 205 nm (Example 10); type: physicochemical; settings: 25°C; for Original Sample Concentration: 250 mg in 10 mL water
Procedure: Samples were analyzed with a Cary 50 UV-Vis dual beam spectrophotometer. The detector was zeroed with a cuvette filled with water prior to sample analysis. Samples were analyzed at room temperature in 1.0 cm quartz cuvette using a scan rate of 600 nm/min in a range of 200 - 400 nm.
25.8 mg of amorphous Rebaudioside X was added to a 10-mL volumetric flask and dissolved 10 mL with water. This stock solution was diluted to five concentration levels for UV measurement.
A calibration curve at 205 nm was established (Abs at 205 nm vs. concentration) to provide the equation y = 5.0625x + 0.0022. R^2 was 0.9999. This equation was used for the subsequent determination of Rebaudioside X concentrations.
250 mg of amorphous Rebaudioside X was added to an amber vial and 10 mL of water was added. The mixture was stirred at room temperature about 10 minutes to yield a transparent solution with only small amount of solid remaining. The mixture became opaque rapidly. The mixture was placed on a mechanical oscillator set at a speed of 250 and 25°C. At the sampling time point of 1, 16, 24, 48, 72, 96, and 192 hours, an aliquot of the slurry was transferred to a centrifuge tube and separated at a speed of 16K rcf for 15 minutes. 200 µL of the clear supernatant was transferred to a 50-mL volumetric flask, 10 mL of water was added and mixed well before UV analysis.

[5] = Dynamic Vapor Sorption (DVS) isotherm; type: physicochemical
Procedure: The Dynamic Vapor Sorption (DVS) DVS data were collected on a VTI SGA-100 Vapor Sorption Analyzer. NaCl and PVP were used as calibration standards. The sample was not dried prior to analysis. Sorption and desorption data were collected over a range from 5 to 95% RH at 10% RH increments under a nitrogen purge. The equilibrium criterion used for analysis was less than 0.0100% weight change in 5 minutes with a maximum equilibration time of 3 hours. Data were not corrected for the initial moisture content of the samples.

[6] = Table 6, water, solvent addition

water solubility [1]: 0.05% | Approximate Water Solubility [2, 6]: 1400 µg/mL | Approximate Water Solubility ([2]; discussion text of Example 13): 14000 µg/mL
SMILES: C=C1C[C@@]23CC[C@H]4[C@@](C)(CCC[C@@]4(C)C(=O)O[C@@H]4O[C@H](CO)[C@@H](O)[C@H](O[C@@H]5O[C@H](CO)[C@@H](O)[C@H](O)[C@H]5O)[C@H]4O[C@@H]4O[C@H](CO)[C@@H](O)[C@H](O)[C@H]4O)[C@@H]2CC[C@]1(O[C@@H]1O[C@H](CO)[C@@H](O)[C@H](O[C@@H]2O[C@H](CO)[C@@H](O)[C@H](O)[C@H]2O)[C@H]1O[C@@H]1O[C@H](CO)[C@@H](O)[C@H](O)[C@H]1O)C3 [Form A Rebaudioside X, (13-[2-O-β-D-glucopyranosyl-3-O-β-D-glucopyranosyl-β-D-glucopyranosyl)oxy] ent kaur-16-en-19-oic acid-[2-O-β-D-glucopyranosyl-3-O-β-D-glycopyranosyl) ester]

water solubility [1]: greater than 1% | Duration of Clarity of Sample ([3]; Sample 1: 250 mg/500 mL water, not filtered): > 60 days^a | Duration of Clarity of Sample ([3]; Sample 2: 500 mg/500 mL water, not filtered): > 60 days^a | Duration of Clarity of Sample ([3]; Sample 3: 750 mg/500 mL water, not filtered): > 0.12 days | Duration of Clarity of Sample ([3]; Sample 5: 625 mg/250 mL water, filtered (0.22 µm membrane)): > 1 days | Duration of Clarity of Sample ([3]; Sample 6: 1750 mg/500 mL water, not filtered): ∼3 h | Duration of Clarity of Sample ([3]; Sample 7: 1750 mg/500 mL water, filtered (0.22 µm membrane)): > 1 days | Duration of Clarity of Sample ([3]; Sample 8: 1000 mg/100 mL water, filtered (0.22 µm membrane)): ∼2 h | Original Sample Concentration ([4]; sampling time 1 hrs): 5.8 mg/mL | Original Sample Concentration ([4]; sampling time 16 hrs): 2.7 mg/mL | Original Sample Concentration ([4]; sampling time 24 hrs): 2.6 mg/mL | Original Sample Concentration ([4]; sampling time 48 hrs): 2.5 mg/mL | Original Sample Concentration ([4]; sampling time 72 hrs): 2.8 mg/mL | Original Sample Concentration ([4]; sampling time 96 hrs): 2.8 mg/mL | Original Sample Concentration ([4]; sampling time 192 hrs): 2.6 mg/mL | solubility thermodynamic ([4]; water): 2600 µg/mL (≈ 2010 µM) | time until equilibrium was established ([4]; water): ≤ 16 h | weight loss upon desorption ([5]; DVS desorption from 95% to 5% RH): 26.0 wt% | weight gain with increasing relative humidity ([5]; DVS sorption from 5% to 95% RH): 26.3 wt% | weight loss upon equilibration at 5% RH ([5]; DVS, 5% RH): 3.1 wt% | approximate solubility ([2]; aqueous, grams of Rebaudioside X per 100 mL water): greater than 0.3%
SMILES: C=C1C[C@@]23CC[C@H]4[C@@](C)(CCC[C@@]4(C)C(=O)O[C@@H]4O[C@H](CO)[C@@H](O)[C@H](O[C@@H]5O[C@H](CO)[C@@H](O)[C@H](O)[C@H]5O)[C@H]4O[C@@H]4O[C@H](CO)[C@@H](O)[C@H](O)[C@H]4O)[C@@H]2CC[C@]1(O[C@@H]1O[C@H](CO)[C@@H](O)[C@H](O[C@@H]2O[C@H](CO)[C@@H](O)[C@H](O)[C@H]2O)[C@H]1O[C@@H]1O[C@H](CO)[C@@H](O)[C@H](O)[C@H]1O)C3 [amorphous Rebaudioside X, (13-[2-O-β-D-glucopyranosyl-3-O-β-D-glucopyranosyl-β-D-glucopyranosyl)oxy] ent kaur-16-en-19-oic acid-[2-O-β-D-glucopyranosyl-3-O-β-D-glycopyranosyl) ester]

Approximate Water Solubility [2, 6]: >10000 µg/mL
SMILES: C=C1C[C@@]23CC[C@H]4[C@@](C)(CCC[C@@]4(C)C(=O)O[C@@H]4O[C@H](CO)[C@@H](O)[C@H](O[C@@H]5O[C@H](CO)[C@@H](O)[C@H](O)[C@H]5O)[C@H]4O[C@@H]4O[C@H](CO)[C@@H](O)[C@H](O)[C@H]4O)[C@@H]2CC[C@]1(O[C@@H]1O[C@H](CO)[C@@H](O)[C@H](O[C@@H]2O[C@H](CO)[C@@H](O)[C@H](O)[C@H]2O)[C@H]1O[C@@H]1O[C@H](CO)[C@@H](O)[C@H](O)[C@H]1O)C3 [Amorphous (water process)]
